Key:
HEK293 = HEK293 cell IC50; assay type: cell-based; conditions: Homo sapiens
MM.1S cells = assay: MM.1S cell survival, MTT assay; assay type: cell-based; conditions: Homo sapiens, MM1.S, 72 h, 72 hours compound exposure
BRD4 = BRD4 (Homo sapiens, UniProt O60885); assay: Differential Scanning Fluorimetry (DSF), stability of BRD4 upon ligand binding; conditions: for IC50: estimated
Description: DSF=Differential Scanning Fluorimetry; provides a measure of the increased stability of BRD4 upon ligand binding The DSF experiment was run at 100 μM protein, 4 μM compound and 2% DMSO.

SAOS-2 = SAOS-2 cell IC50; assay type: cell-based; conditions: Homo sapiens
[1] = 100 μM protein, 4 μM compound and 2% DMSO

| Compound | ΔTm at 4 µM (BRD4; [1]) [°C] | IC50 (BRD4) [µM] | IC50 (SAOS-2) [µM] | DSF ΔTm (° C.) (BRD4; [1]) [°C] | IC50 (HEK293) [µM] | IC50 (MM.1S cells) [µM] |
| --- | --- | --- | --- | --- | --- | --- |
| COc1cc(Nc2nc(Nc3ccc(N4CCN(C)CC4)cc3)ncc2Cl)ccc1Cl | 4.8 ± 0.058 | 0.54 | – | – | 1.4 | 0.45 |
| Cc1nc(Nc2ccc(N3CCN(C)CC3)cc2)nc(Nc2cccc(S(=O)(=O)NC(C)(C)C)c2)c1C | 5.3 ± 0.064 | 0.37 | – | – | 120 | – |
| Cc1cnc(Nc2ccc(N3CCN(C)CC3)cc2)nc1Nc1cccc(NS(=O)(=O)C2CC2)c1 | 6.7 ± 0.11 | 0.13 | – | – | 1 | 0.6 |
| COc1cc(Nc2nc(Nc3ccc(N4CCN(C)CC4)cc3)nc(C)c2C)cc(OC)c1OC | 5.9 ± 0.14 | 0.23 | – | – | 1.4 | 5.6 |
| COc1cc(Nc2nc(Nc3ccc(N4CCN(C)CC4)cc3)ncc2Cl)cc(OC)c1OC | 5.2 ± 0.02 | 0.4 | – | – | 2 | – |
| COc1cccc(Nc2nc(Nc3ccc(N4CCN(C)CC4)cc3)ncc2Cl)c1 | 1.68 ± 0.078 | 5.96 | – | – | – | – |
| CCOc1cccc(Nc2nc(Nc3ccc(N4CCN(C)CC4)cc3)ncc2Cl)c1 | 4.3 ± 0.12 | 0.79 | – | – | – | – |
| COc1ccc(Nc2nc(Nc3ccc(N4CCN(C)CC4)cc3)ncc2C)cc1OC | 5.6 ± 0.059 | 0.29 | – | – | – | – |
| CN1CCN(c2ccc(Nc3ncc(Cl)c(Nc4cccc(S(=O)(=O)NC5CC5)c4)n3)cc2)CC1 | 6.4 ± 0.15 | 0.16 | – | – | 1.8 | 0.88 |
| CN1CCN(c2ccc(Nc3ncc(Cl)c(Nc4cccc(S(=O)(=O)NC(C)(C)CO)c4)n3)cc2)CC1 | 6.1 ± 0.15 | 0.2 | – | – | 1.5 | – |
| Cc1cnc(Nc2ccc(N3CCN(C)CC3)cc2)nc1Nc1cccc(S(=O)(=O)NC(C)(C)CO)c1 | 6.5 ± 0.18 | 0.15 | – | – | 3.6 | – |
| Cc1nc(Nc2ccc(N3CCN(C)CC3)cc2)nc(Nc2cccc(S(=O)(=O)NC(C)(C)CO)c2)c1C | 5.5 ± 0.17 | 0.32 | – | – | 4.3 | – |
| COc1cc(Nc2nc(Nc3ccc(N4CCN(C)CC4)cc3)nc3ccccc23)ccc1Cl | 4.9 ± 0.13 | 0.5 | – | – | 1.7 | – |
| Cc1cnc(Nc2ccc(N3CCN(C)CC3)cc2)nc1Nc1cccc(S(=O)(=O)NC(C)(C)C)c1 [drawing 27] | 6.83 ± 0.129 | – | 0.425 | 7.55 ± 0.154 | – | – |

Further lines, with some results ahead:

| ΔTm at 4 µM (BRD4; [1]) [°C] | IC50 (BRD4) [µM] | IC50 (SAOS-2) [µM] | DSF ΔTm (° C.) (BRD4; [1]) [°C] | Compound | IC50 (HEK293) [µM] | IC50 (MM.1S cells) [µM] |
| --- | --- | --- | --- | --- | --- | --- |
| 7.3 ± 0.099 | 0.079 | – | – | Cc1cnc(Nc2ccc(N3CCN(C)CC3)cc2)nc1Nc1cccc(S(=O)(=O)NC2CC2)c1 | 1.2 | 1.2 |
| 6.9 ± 0.15 | 0.11 | – | – | CN1CCN(c2ccc(Nc3ncc(Cl)c(Nc4cccc(NS(=O)(=O)C5CC5)c4)n3)cc2)CC1 | 3.6 | – |
| 6.9 ± 0.1 | 0.11 | – | – | COc1cc(Nc2nc(Nc3ccc(N4CCN(C)CC4)cc3)ncc2C)cc(OC)c1OC | 0.97 | – |
| 7.6 ± 0.15 | 0.063 | – | – | COc1cc(Nc2nc(Nc3ccc(N4CCN(C)CC4)cc3)ncc2C)cc(OC)c1Cl | – | 1.1 |
| 6.9 ± 0.038 | 0.11 | 2.5 | – | CN1CCN(c2ccc(Nc3nc4c(c(Nc5cccc(NS(=O)(=O)C(C)(C)C)c5)n3)CCCC4)cc2)CC1 | – | 1.7 |
| 9.91 ± 0.039 | 0.0405 | – | – | CN1CCC(NC(=O)c2ccc(Nc3ncc(F)c(Nc4ccc(Cl)c(NS(=O)(=O)C(C)(C)C)c4)n3)cc2F)CC1 | – | 0.12 |
| 12 ± 0.5 | 0.0105 | – | – | CN1CCC(NC(=O)c2ccc(Nc3ncc(Cl)c(Nc4ccc(Cl)c(NS(=O)(=O)C(C)(C)C)c4)n3)cc2F)CC1 | – | 0.09 |

Reference: US10526291B2, “Potent dual BRD4-kinase inhibitors as cancer therapeutics” (H. Lee Moffitt Cancer Center and Research Institute, Inc., priority 2014, dated 2020)
